Test system: HSV-2 G strain
Test: HSV-2 Antiviral Assay (Vero cells, cell viability)
Format: cell-based
Conditions: Vero cells, 160 TCID50 HSV-2 G strain, 5 days, cell viability
Method: Vero cells were cultured in Dulbecco's Modified Eagle Medium (DMVEM) supplemented with […] and 100 units/mL penicillin and streptomycin. The cells were passaged 2-3 times per week to maintain sub-confluent densities.
Vero cells were seeded into 96-well plates at a density of 1.0×10^4 cells per well and allowed to attach overnight. Following attachment, the media was replaced with 50 μL of infection medium (DMEM supplemented with 2% fetal bovine serum and 100 units/mL penicillin and streptomycin). A Tecan D300e digital dispenser was then used to add compounds to the culture using an 8-point 3-fold serial dilution format. The DMSO concentration was normalized to 0.5% for all treatments. Following compound addition, 50 μL of infection medium containing 160 TCID50 HSV-2 G strain was added to the cells and incubated at 37° C. for 5 days. After the incubation, 10 μL/well of WST-8 chromogenic reagent was added and the plates incubated at 37° C. for 3 hours. Following the incubation, cell viability was quantified by measuring the absorbance at 460 nm and 620 nm using a Tecan Infinite M1000 Pro plate reader.

[1] = Human alphaherpesvirus 2, Vero, 120 h

## CSc1ccc(F)cc1-c1ccc(N2CCCN(c3nc(C)c(S(N)(=O)=O)s3)C2=O)cc1 [Compound 223]
[1]
  EC50: < 100 nM

## CCCS(=N)(=O)c1sc(N2CCCN(c3ccc(-c4cc(F)cc(F)c4F)cc3)C2=O)nc1C (centres unmarked) [Compound 423]
[1]
  EC50: < 100 nM

## Cc1nc(N2CCCN(c3ccc(-c4ccccc4)c4sncc34)C2=O)sc1S(N)(=O)=O [Compound 312]
[1]
  EC50: 1000 to 5000 nM

## Cc1nc(N2CCCN(c3ccc(-c4cc(F)ccc4F)cc3)C2=O)sc1S(=O)(=O)NC[C@H](C)CO [Compound 396]
[1]
  EC50: < 100 nM

## C#Cc1nc(N2CCCN(c3ccc(-c4cc(F)ccc4F)cc3)C2=O)sc1S(N)(=O)=O [Compound 439]
[1]
  EC50: < 100 nM

## Cc1nc(N2CC(C#N)CN(c3ccc(-c4cc(F)ccc4F)cc3)C2=O)sc1S(N)(=O)=O (centres unmarked) [Compound 360, 2-(5-cyano-3-(2′,5′-difluoro-[1,1′-biphenyl]-4-yl)-2-oxotetrahydropyrimidin-1(2H)-yl)-4-methylthiazole-5-sulfonamide]
[1]
  EC50: < 100 nM

## Cc1nc(N2CCCN(c3ccc(-c4nc(C#N)cs4)cc3)C2=O)sc1S(N)(=O)=O [Compound 48]
[1]
  EC50: < 100 nM

## Cc1cc(O)cc(-c2ccc(N3CCCN(c4nc(C)c(S(N)(=O)=O)s4)C3=O)cc2)n1 [Compound 238]
[1]
  EC50: 1000 to 5000 nM

## Cc1nc(N2CC(C(F)F)CN(c3ccc(-c4cc(F)ccc4F)cc3)C2=O)sc1S(N)(=O)=O (centres unmarked) [Compound 349]
[1]
  EC50: < 100 nM

## Cc1nc(N2CC3(COC3)CN(c3ccc(-c4cc(F)ccc4F)cc3)C2=O)sc1[S@@](C)(=N)=O (single isomer, unassigned) [Compound 432]
[1]
  EC50: < 100 nM

## Cc1nc(N2CCCN(c3ccc(-c4nccc5ccsc45)cc3)C2=O)sc1S(N)(=O)=O [Compound 270]
[1]
  EC50: < 100 nM

## COc1ccc(-c2ccc(N3CCCN(c4nc(C)c(S(N)(=O)=O)s4)C3=O)cc2)c2ccn(C)c12 [Compound 296]
[1]
  EC50: 100 to 1000 nM

## Cc1cccc(-c2ccc(N3CCCN(c4nc(C)c(S(N)(=O)=O)s4)C3=O)cc2)c1C [Compound 195]
[1]
  EC50: < 100 nM

## Cc1nc(N2CCCN(c3ccc(-c4ccc(F)c(Cl)c4)cc3)C2=O)sc1S(N)(=O)=O [Compound 186]
[1]
  EC50: 100 to 1000 nM

## CN=[S@](C)(=O)c1sc(N2CCCN(c3ccc(-c4cc(F)ccc4F)cc3)C2=O)nc1C (single isomer, unassigned) [Compound 153]
[1]
  EC50: 100 to 1000 nM

## Cc1nc(N2CCCN(c3ccc(-c4cc(F)ccc4SC(F)(F)F)cc3)C2=O)sc1S(N)(=O)=O [Compound 219]
[1]
  EC50: 100 to 1000 nM

## Cc1nc(N2CCCN(c3ccc(-c4cccc(-c5cscn5)c4)cc3)C2=O)sc1S(N)(=O)=O [Compound 229]
[1]
  EC50: < 100 nM

## COc1ccc(F)cc1-c1ccc(N2CC3(COC3)CN(c3nc(C)c(S(N)(=O)=O)s3)C2=O)cc1 [Compound 378]
[1]
  EC50: < 100 nM

## Cc1nc(N2CCCN(c3ccc(-c4ccccc4F)cc3)C2=O)sc1[S@@](C)(=N)=O (single isomer, unassigned) [Compound 144]
[1]
  EC50: 100 to 1000 nM

## Cc1nc(N2CCCN(c3ccc(-c4snc5c(F)ccc(F)c45)cc3)C2=O)sc1S(N)(=O)=O [Compound 307]
[1]
  EC50: 100 to 1000 nM

## Cc1nc(N2CCCN(c3ccc(-c4cc(F)ccc4C(C)(F)F)cc3)C2=O)sc1S(N)(=O)=O [Compound 225]
[1]
  EC50: < 100 nM

## CN=[S@@](C)(=O)c1sc(N2CCCN(c3ccc(-c4ccccc4F)cc3)C2=O)nc1C (single isomer, unassigned) [Compound 147]
[1]
  EC50: < 100 nM

## Cc1nc(N2C[C@@H](F)CN(c3ccc(-c4cc(F)ccc4F)cc3)C2=O)sc1S(=O)(=O)NCCO (single isomer, unassigned) [Compound 415]
[1]
  EC50: < 100 nM

## COc1c(F)cc(F)cc1-c1ccc(N2CCCN(c3nc(C)c(S(=O)(=O)NCCCCCCCCCCO)s3)C2=O)cc1 [Compound 422]
[1]
  EC50: < 100 nM

## Cc1nc(N2CCCN(c3ccc(-c4cc(Cl)c(Cl)cn4)cc3)C2=O)sc1S(N)(=O)=O [Compound 234]
[1]
  EC50: < 100 nM

## Cc1nc(N2CCCN(c3ccc(-c4cc(F)cc5c4c(C#N)cn5C)cc3)C2=O)sc1S(N)(=O)=O [Compound 294]
[1]
  EC50: 100 to 1000 nM

## Cc1nc(N2CCCN(c3ccc(-c4cc(F)cc5nc(C6CC6)sc45)cc3)C2=O)sc1S(N)(=O)=O [Compound 253]
[1]
  EC50: < 100 nM

## Cc1nc(N2CCCN(c3ccc(-c4cccc(S(C)(=O)=O)c4)cc3)C2=O)sc1S(N)(=O)=O [Compound 201]
[1]
  EC50: 1000 to 5000 nM

## Cc1nc(N2CCCN(c3ccc(-c4cc(F)cc5cc(C(C)(C)F)sc45)cc3)C2=O)sc1S(N)(=O)=O [Compound 284]
[1]
  EC50: 100 to 1000 nM

## Cc1nc(N2CCCN(c3ccc(-c4c(F)ccc5ncsc45)cc3)C2=O)sc1S(N)(=O)=O [Compound 70]
[1]
  EC50: < 100 nM

## Cc1nc(N2C(=O)N(c3ccc(-c4cc(F)ccc4F)cc3)CCC2C)sc1S(N)(=O)=O (centres unmarked) [Compound 107, 2-(3-(2′,5′-Difluoro-[1,1′-biphenyl]-4-yl)-6-methyl-2-oxotetrahydropyrimidin-1(2H)-yl)-4-methylthiazole-5-sulfonamide]
[1]
  EC50: < 100 nM

## Cc1nc(N2CCCN(c3ccc(-c4cc(F)cc5c4ccn5C(F)F)cc3)C2=O)sc1S(N)(=O)=O [Compound 299]
[1]
  EC50: < 100 nM

## Cc1nc(N2CCCCN(c3ccc(-c4cc(F)ccc4F)cc3)C2=O)sc1S(C)(=N)=O (centres unmarked) [Compound 154]
[1]
  EC50: < 100 nM

## Cc1nc(N2CCCN(c3ccc(-c4cc(C#N)ccc4F)cc3)C2=O)sc1S(N)(=O)=O [Compound 202]
[1]
  EC50: < 100 nM

## Cc1nc(N2C[C@@H](C#N)CN(c3ccc(-c4cc(F)ccc4F)cc3)C2=O)sc1S(N)(=O)=O (single isomer, unassigned) [Compound 377]
  EC50: < 100 nM

## Cc1nc(N2CCCN(c3ccc(-c4cc(Cl)c(F)cn4)cc3)C2=O)sc1S(N)(=O)=O [Compound 38]
[1]
  EC50: 1000 to 5000 nM

## COc1c(F)cc(C#N)cc1-c1ccc(N2CCCN(c3nc(C)c(S(N)(=O)=O)s3)C2=O)cc1 [Compound 226]
[1]
  EC50: 100 to 1000 nM

## COC(=O)C1CN(c2ccc(-c3cc(F)ccc3F)cc2)C(=O)N(c2nc(C)c(S(N)(=O)=O)s2)C1 (centres unmarked) [Compound 384]
[1]
  EC50: < 100 nM

## Cc1nc(N2CCCN(c3ccc(-c4cccc5c4C(F)(F)CO5)cc3)C2=O)sc1S(N)(=O)=O [Compound 264]
[1]
  EC50: < 100 nM

## CCC[S@](=N)(=O)c1sc(N2CCCN(c3ccc(-c4cc(F)cc(F)c4F)cc3)C2=O)nc1C (single isomer, unassigned) [Compound 425]
[1]
  EC50: < 100 nM

## Cc1nc(N2CC(O)CN(c3ccc(-c4cc(F)ccc4F)cc3)C2=O)sc1S(N)(=O)=O (centres unmarked) [Compound 353, 2-(3-(2′,5′-difluoro-[1,1′-biphenyl]-4-yl)-5-hydroxy-2-oxotetrahydropyrimidin-1(2H)-yl)-4-methylthiazole-5-sulfonamide]
[1]
  EC50: < 100 nM

## Cc1nc(N2CCCN(c3ccc(-c4cc(F)ccc4F)cc3)C2=O)sc1S(=O)(=O)NO [Compound 385]
[1]
  EC50: 100 to 1000 nM

## Cc1nc(N2CCCN(c3ccc(-c4cccc5c(C)csc45)cc3)C2=O)sc1S(N)(=O)=O [Compound 275]
[1]
  EC50: < 100 nM

## Cc1nc(N2CC3(COC3)CN(c3ccc(-c4cc(F)cc5nonc45)cc3)C2=O)sc1S(N)(=O)=O [Compound 341]
[1]
  EC50: < 100 nM

## Cc1nc(N2CCCN(c3ccc(-c4cc(F)ccc4F)cc3)C2=O)sc1S(=O)(=O)NC[C@@H](C)CO [Compound 395]
[1]
  EC50: < 100 nM

## Cc1nc(N2CCCN(c3ccc(-c4cccc(C5(C#N)CC5)c4)cc3)C2=O)sc1S(N)(=O)=O [Compound 198]
[1]
  EC50: < 100 nM

## Cc1nc(N2CCCN(c3ccc(-c4cc(F)cc5cc(C#N)sc45)cc3)C2=O)sc1S(N)(=O)=O [Compound 276]
[1]
  EC50: < 100 nM

Source: patent publication US20260103471A1, “CYCLIC UREA THIAZOLYL COMPOUNDS FOR TREATMENT OF HSV” (Assembly Biosciences, Inc., priority 2022, published 2026)
